From PMC9610855, “Valorisation of the Inhibitory Potential of Fresh and Dried Fruit Extracts of Prunus spinosa L. towards Carbohydrate Hydrolysing Enzymes, Protein Glycation, Multiple Oxidants and Oxidative Stress-Induced Changes in Human Plasma Constituents” (Pharmaceuticals, 2022)

Columns and labels:
human neutrophils = test system: human neutrophils; set-up: method as in PMID 35630778; conditions: 50 μM; cited from earlier work
HO^• scavenging = conditions: mean ± SD of three replicates
Experimental: (§1) The scavenging efficiency of P. spinosa fruit extracts/fractions towards various ROS (O2^•−, HO^•, H2O2, HOCl, and NO^•) was tested using appropriate fluorimetric and spectrophotometric methods as described previously. Ascorbic acid and Trolox® served as positive controls. The results were expressed as half scavenging concentration (SC50) values, estimated using concentration-scavenging curves.

HOCl scavenging = conditions: mean ± SD of three replicates
Experimental: as §1

O2^•− scavenging = conditions: mean ± SD of three replicates
Experimental: as §1

α-glucosidase = α-glucosidase inhibition assay (p-NPG hydrolysis, spectrophotometric); type: biochemical; conditions: mean ± SD (n = 3)
Experimental: The inhibition of α-glucosidase was evaluated according to the spectrophotometric method reported by Ma et al. with slight modifications. The enzyme activity measurement was based on the p-nitrophenyl-α-D-glucopyranoside (p-NPG) hydrolysis. In brief, 150 µL of a phosphate buffer (0.1 M, pH 6.9) solution of an extract or standard was mixed with the enzyme (0.43 U/mL, 50 µL) and pre-incubated for 15 min at 37 °C. Next, a 0.7 mM p-NPG solution in the buffer (50 µL) was added, and after 15 min of incubation, the reaction was stopped by adding Na2CO3 (0.2 M, 50 µL). Finally, the absorbance was read at 405 nm in a microplate reader. […] The inhibitory potential of the analytes towards α-glucosidase was expressed as a half inhibitory concentration (IC50), calculated from concentration-inhibition curves.

H2O2 scavenging = conditions: mean ± SD of three replicates
Experimental: as §1

NO^• scavenging = conditions: mean ± SD of three replicates
Experimental: as §1

[1] = test system: AGEs formation (protein glycation, fructose-BSA); experiment: inhibition of AGEs formation, fructose-bovine serum albumin (BSA) test system; conditions: mean ± SD (n = 3)
Experimental: The impact of the extracts/fractions on protein glycation was evaluated in the fructose-bovine serum albumin (BSA) test system with aminoguanidine as a positive control according to the fluorimetric method of Starowicz and Zieliński, modified by Rutkowska et al.. The fluorescence was measured at 37 °C in a microplate reader at 355 nm and 420 nm for excitation and emission, respectively. The results were reported as half inhibitory concentration (IC50) values, estimated using concentration-inhibition curves.

α-amylase = target: T1, α-amylase (Sus scrofa, UniProt P00690); experiment: α-amylase inhibition assay (EnzChek Ultra Amylase Assay Kit, fluorometric); type: biochemical; conditions: mean ± SD (n = 3)
T1 construct: pancreatin from porcine pancreas; purchased Sigma-Aldrich; host or cells: porcine pancreas extract (pancreatin)
T1 sequence (P00690 16-511): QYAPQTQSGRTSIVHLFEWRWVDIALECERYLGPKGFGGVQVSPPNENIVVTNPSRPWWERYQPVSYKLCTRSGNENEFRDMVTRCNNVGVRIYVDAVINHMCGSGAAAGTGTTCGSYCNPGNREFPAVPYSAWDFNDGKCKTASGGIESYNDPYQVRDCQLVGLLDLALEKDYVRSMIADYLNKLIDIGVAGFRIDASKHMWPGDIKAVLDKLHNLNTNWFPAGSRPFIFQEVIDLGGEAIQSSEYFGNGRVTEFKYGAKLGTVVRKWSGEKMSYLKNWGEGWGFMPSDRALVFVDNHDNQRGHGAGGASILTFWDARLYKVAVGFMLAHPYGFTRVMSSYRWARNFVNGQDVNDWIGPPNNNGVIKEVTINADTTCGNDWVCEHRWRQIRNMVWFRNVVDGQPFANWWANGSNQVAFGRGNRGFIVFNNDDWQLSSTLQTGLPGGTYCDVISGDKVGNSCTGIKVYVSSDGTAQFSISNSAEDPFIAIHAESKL
Experimental: The inhibitory activity of the analytes towards α-amylase was determined fluorometrically according to Truba et al. using an EnzChek™ Ultra Amylase Assay Kit. The test was based on measuring products formed after the enzymatically catalysed hydrolysis of the corn starch substrate DQTM (labeled with the fluorescent dye BODIPY® FL). The fluorescence of the hydrolysate was read at 37 °C in a microplate reader at 485 nm and 535 nm for excitation and emission, respectively. […] The inhibitory potential of the analytes towards α-amylase was expressed as a half inhibitory concentration (IC50), calculated from concentration-inhibition curves.

[2] = test system: human plasma lipids (TBARS); experiment: lipid peroxidation (TBARS) in human plasma exposed to ONOO^−; conditions: 5 μg/mL, compared with the other standard polyphenols
Experimental: Therefore, to check the potential preventive effects of P. spinosa fruit extracts against oxidative and nitrative injury of biomolecules, an experimental model of human blood plasma exposed to oxidative stress induced by ONOO^− (100–150 μM; achievable locally in vivo, e.g., in inflamed blood vessels) was applied. The process was monitored by measuring the oxidative stress biomarkers, including the products of protein nitration (3-nitrotyrosine, 3-NT), lipid peroxidation (thiobarbituric acid reactive substances, TBARS), as well as the total antioxidant capacity of plasma (NEAC). The extracts and fractions from fresh sloes were selected for the study due to their high ability to inhibit glycolytic enzymes, potent anti-glycation activity, and significant ROS/RNS-scavenging properties. […] The influence on the levels of oxidative stress biomarkers in plasma was evaluated using the appropriate immunoenzymatic and spectrophotometric methods. […] The results were calculated using the standard curve of nitro-fibrinogen (3-NT-Fg) and expressed as 3-NT-Fg equivalents (nmol/mg of plasma proteins). The TBARS levels of plasma lipids were determined spectrophotometrically and calculated in nmol/mL of plasma. The impact on the NEAC value was measured using the FRAP assay, with the results calculated from the standard curve of ferrous sulphate and expressed in mM of Fe^2+ equivalents.

Row | SMILES | downregulation (reduction) of the ROS level in human neutrophils (human neutrophils) | Scavenging activity (SC50) HO^• (HO^• scavenging) | Scavenging activity (SC50) HOCl (HOCl scavenging) | Scavenging activity (SC50) O2^•− (O2^•− scavenging) | α-Glucosidase IC50 (α-glucosidase) | Scavenging activity (SC50) H2O2 (H2O2 scavenging) | Scavenging activity (SC50) NO^• (NO^• scavenging) | AGEs Formation IC50 [1] | IC50 (α-amylase) | activity of model polyphenol in the TBARS test [2] | α-Amylase IC50 (α-amylase)
1 | O=Cc1ccc(CO)o1 [5-Hydroxymethylfurfural (HMF), 5-hydroxymethylfurfural] | 15% | *** (inactive up to 1500 µg/mL) | ** (inactive up to a concentration of 500 µg/mL) | ** (inactive up to a concentration of 500 µg/mL) | ** (inactive up to 1000 µg/mL) | *** (inactive up to 1500 µg/mL) | ** (inactive up to a concentration of 500 µg/mL) |  |  |  | 
2 | N=C(N)NN [Aminoguanidine, aminoguanidine] |  |  |  |  |  |  |  | 78.89 ± 4.95 ^C µg/mL |  |  | 
3 | O=C1O[C@H]([C@@H](O)CO)C(O)=C1O [Ascorbic acid, ascorbic acid] |  | 0.14 ± 0.005 ^B,C mg/mL | 6.32 ± 0.07 ^A µg/mL | 5.28 ± 0.25 ^A µg/mL |  | 0.014 ± 0.001 ^A,B mg/mL | 0.59 ± 0.04 ^A µg/mL |  |  |  | 
4 | O=C(/C=C/c1ccc(O)c(O)c1)O[C@@H]1C[C@](O)(C(=O)O)C[C@@H](O)[C@H]1O [Chlorogenic acid, 5-O-caffeoylquinic acid] |  |  |  |  |  |  |  | 7.07 ± 0.74 ^A µg/mL | 229 µM |  | 
5 | OC[C@H]1O[C@@H](Oc2cc3c(O)cc(O)cc3[o+]c2-c2ccc(O)c(O)c2)[C@H](O)[C@@H](O)[C@@H]1O [Cyanidin 3-O-glucoside, cyanidin 3-O-β-D-glucopyranoside] |  | 0.17 ± 0.002 ^C mg/mL | 5.62 ± 0.11 ^A µg/mL | 10.11 ± 0.33 ^A µg/mL | 635.13 ± 34.43 ^H µg/mL | 0.012 ± 0.001 ^A,B mg/mL | 1.40 ± 0.09 ^B µg/mL | 10.90 ± 0.85 ^A µg/mL |  | especially active | 31.28 ± 1.66 ^B µg/mL
6 | O=c1c(O[C@@H]2O[C@H](CO)[C@@H](O)[C@H](O)[C@H]2O)c(-c2ccc(O)c(O)c2)oc2cc(O)cc(O)c12 [Quercetin 3-O-glucoside (isoquercitrin), quercetin 3-O-β-D-glucopyranoside] |  |  |  |  | 209.64 ± 5.64 ^G µg/mL |  |  | 3.09 ± 0.17 ^A µg/mL |  |  | 
7 | O=c1c(O)c(-c2ccc(O)c(O)c2)oc2cc(O)cc(O)c12 [Quercetin, quercetin] | 96% | 0.05 ± 0.002 ^A mg/mL | 2.08 ± 0.14 ^A µg/mL | 7.89 ± 0.24 ^A µg/mL |  | 0.008 ± 0.001 ^A mg/mL | 0.48 ± 0.03 ^A µg/mL |  |  |  | 
8 | Cc1c(C)c2c(c(C)c1O)CCC(C)(C(=O)O)O2 (stereo not shown) [Trolox] |  | 0.13 ± 0.003 ^B,C mg/mL | 21.49 ± 1.21 ^C µg/mL | 135.33 ± 5.59 ^F µg/mL |  | 0.020 ± 0.001 ^B mg/mL | 0.59 ± 0.02 ^A µg/mL |  |  |  | 
